Where “and” joins values, the source holds several entries; their conditions need not be identical. Equal entries are not always repeated. Peptide text beside a SMILES is read from it.
Experiments:
FTH1 = FTH1 mRNA levels in mouse bone marrow-derived macrophages (qPCR); format: cell-based; conditions: murine macrophages; for FTH1 Levels, Fe-Normal / FTH1 Levels, DFO (−Fe) / FTH1 Levels, Fe-NTA (+Fe): SPH 160 μM or oligopeptide 10 μM; for FTH1 Levels, Fe-Normal: normal iron, normalized to Hprt1, relative to control samples; for FTH1 Levels, DFO (−Fe): with DFO 100 μM 16 h; for FTH1 Levels, DFO (−Fe) / FTH1 Levels, Fe-NTA (+Fe): relative to control samples; for FTH1 Levels, Fe-NTA (+Fe): with Fe-NTA 8 h; for FTH1 mRNA expression: normal and iron-depleted conditions
Description: Cell Cultures. MBMMs (C57BL/6 genetic background) were obtained from CellBiologics.net and prepared under the conditions recommended by the supplier. Isolated MBMMs were seeded onto 10 cm diameter Petri dishes and grown in RPMI-GlutaMAX™ medium (Invitrogen) supplemented with 10% heat-inactivated FCS (Gibco), 10% L-cell-conditioned medium (source of colony-stimulating factor 1), 2 mM L-glutamine, 50 U/mL penicillin, and […] streptomycin. At 4 days after seeding, the adherent MBMMs were rinsed twice with Hanks balance salt solution (HBSS), and the medium was renewed for 7 days, at which point the MBMMs had completely differentiated into macrophages that were ready for downstream experimental applications.
Cell Treatments. SPH (average molecular weight of about 1100 Daltons) and oligopeptides were dissolved in sterile water to obtain […] stock solutions. The SPH and oligopeptides were further diluted in cell culture media to reach final concentrations of 160 μM SPH and 10 μM oligopeptide per Petri dish.
Murine macrophages were incubated with SPH or an oligopeptide in the presence or absence of an iron-nitrilotriacetate solution (Fe-NTA; FeCl3 (100 μM)-NTA (400 μM)) for 8 h at 37° C. to increase cellular iron concentration. Murine macrophages were also incubated with SPH or an oligopeptide in the presence or absence of desferrioxamine mesylate (DFO; 100 μM) for 16 h at 37° C. to decrease cellular iron concentration. Commercial collagen peptide (Vital Protein) at a 10 μM concentration and sterile water were used as negative controls.
Measurement of Gene Expression. Total RNA was extracted from macrophages using the Qiagen miRNeasy Mini Kit for purification of total RNA from animal and human cells and tissues according to the manufacturer's instructions. About 2 μg of total RNA was transcribed into cDNA, after RT2 RNA QC PCR Array was run to confirm the quality of the RNA samples followed by gene expression analysis using RT2 Profiler PCR array.
The primers used for amplification of cDNA were: […]
All reactions were performed in a total reaction volume of 20 μl with iQ™ SYBR® Green Supermix (Bio-Rad) and carried out in the iQ™5 instrument (Bio-Rad). Baseline thresholds were calculated by Bio-Rad iQ5 program, and the threshold cycles (Ct) were used, wherein Ct values for the Fth1 gene were normalized to expression levels of Hprt1 (housekeeping) gene. Results are shown in Table 8-2 as n-fold difference relative to the control samples.

[1] = test system: Immortalized human astrocytes (P10251-IM); assay: Protection of human astrocytes from hemin-induced injury (LDH release assay); format: cell-based; conditions: for % LDH Release (individual runs) / % LDH Release, Average: 24 hr pre-treatment: SPH 160 μM, oligopeptide 10 μM, collagen control 160 μM, then 30 μM hemin 6 hrs, scaled to 0.1% Triton X-100 lysis; for mortality of astrocytes after hemin: oligopeptide 10 μM pre-treatment, hemin-induced oxidative damage
Description: Immortalized human astrocytes (P10251-IM) were obtained from Innoprot, Spain and prepared under conditions recommended by the supplier. At 90% confluency, the P10251-IM cells were rinsed with 8 ml of DPBS and 2 ml of the T/E Solution (prepared as per Innoprot procedure), then added into an […] and gently rocked so that the P10251-IM cells would be completely covered. The flask was subsequently incubated at 37° C. for 2 minutes. Then 5 ml of fetal bovine serum (FBS) and the T/E solution from the flask were added into a 50 ml conical centrifuge tube. The flask was incubated for an additional 2 minutes, and the P10251-IM cells dislodged from the surface by gentle tapping. The P10251-IM cells were then transferred to the 50 ml conical centrifuge tube with 5 ml of TNS solution. The tube was centrifuged at 1000 rpm for 5 minutes. Then the P10251-IM cells were resuspended in the culture medium, counted, and plated in a poly-L-lysine-coated culture plate at 1×10^4 cell density. Cells were tested after they were incubated for 21 days in vitro.
Confluent P10251-IM cell cultures were washed and then pre-treated with medium alone, or medium supplemented with SPH (160 μM) or an oligopeptide (10 μM) for 24 hr at 37° C. Commercial collagen peptide (Vital Protein) at 160 μM concentration and sterile water were used as negative controls. The P10251-IM cells were subsequently treated with 30 μM hemin in serum-free medium consisting of MEM with 10 mM glucose (MEM10) for 6 hrs.
P10251-IM astrocyte cultures that were […] with 30 μM hemin sustained widespread cell injury. Cell viability was quantified using the lactate dehydrogenase (LDH) release assay as previously described (Chen and Regan, Curr Neurovasc Res, 2:189-196, 2005). Briefly, quantification of the protective effects of SPH and oligopeptides were assessed by determining the mean percentage LDH released, scaled to the complete lysis control culture which was treated with 0.1% Triton X-100 (considered to release 100% of culture LDH).

**Q.** What does the source list for `CC(C)C[C@H](NC(=O)[C@H](CCC(=O)O)NC(=O)CNC(=O)[C@H](CO)NC(=O)[C@H](CCC(=O)O)NC(=O)[C@H](CCC(=O)O)NC(=O)[C@@H](N)CCCNC(=N)N)C(=O)O` [FT-008, REESGEL] (H-REESGEL-OH)?
**A.** FTH1 Levels, Fe-Normal (FTH1): 2.5 n-fold; FTH1 Levels, DFO (−Fe) (FTH1): 3.4 n-fold; FTH1 Levels, Fe-NTA (+Fe) (FTH1): 2.7 n-fold; FTH1 mRNA expression (FTH1): substantial increases; % LDH Release (individual runs) [1]: 29% and 27% and 31%; % LDH Release, Average [1]: 29%; mortality of astrocytes after hemin [1]: 29%

**Q.** Which results are given for `N=C(N)NCCC[C@H](NC(=O)[C@@H]1CCCN1)C(=O)N[C@@H](CCC(=O)O)C(=O)N[C@@H](CCC(=O)O)C(=O)N[C@@H](CO)C(=O)N[C@@H](CC(=O)O)C(=O)N[C@@H](CCCCN)C(=O)N1CCC[C@H]1C(=O)O` [FT-007, PREESDKP] (H-PREESDKP-OH)?
**A.** FTH1 Levels, Fe-Normal (FTH1): 1.9 n-fold; FTH1 Levels, DFO (−Fe) (FTH1): 3.1 n-fold; FTH1 Levels, Fe-NTA (+Fe) (FTH1): 2.9 n-fold; FTH1 mRNA expression (FTH1): substantial increases; % LDH Release (individual runs) [1]: 35% and 38% and 34%; % LDH Release, Average [1]: 36%; mortality of astrocytes after hemin [1]: 36%

**Q.** Which “FTH1 Levels, Fe-Normal” value (FTH1) does the source give for `CSCC[C@H](NC(=O)[C@@H]1CCCN1C(=O)[C@H](CCCCN)NC(=O)[C@H](CC(=O)O)NC(=O)[C@H](CO)NC(=O)[C@H](CCC(=O)O)NC(=O)[C@H](CCC(=O)O)NC(=O)[C@@H](N)CCCNC(=N)N)C(=O)N[C@@H](Cc1ccc(O)cc1)C(=O)O` [FT-006, REESDKPMY] (H-REESDKPMY-OH) here?
**A.** The value was 2.7 n-fold.

**Q.** What about the “FTH1 Levels, DFO (−Fe)” value (FTH1) of the same molecule?
**A.** The value was 3.3 n-fold.

**Q.** What about the “FTH1 Levels, Fe-NTA (+Fe)” value (FTH1) of the same molecule?
**A.** The value was 2.8 n-fold.

**Q.** And the “FTH1 mRNA expression” value (FTH1)?
**A.** Its value is “substantial increases”.

**Q.** What about the “% LDH Release (individual runs)” value [1] of the same molecule?
**A.** The value was 40% and 39% and 42%.

**Q.** And the “% LDH Release, Average” value [1]?
**A.** Its value is 40%.

**Q.** And the “mortality of astrocytes after hemin” value [1]?
**A.** The value was 40%.

Reference: patent US20250101061A1, “UPREGULATION OF FERRITIN HEAVY CHAIN 1 EXPRESSION” (HBC Immunology Inc., priority 2022, published 2025)
